Measurements reported in patent publication EP2070529B1, “Medical use of 3-(2,2,2-trimethylhydrazinium) propionate orotate” (Grindeks, a joint stock company, priority 2007, dated 2009).
Several values for one entry are separate records, joined by “and”; a condition that tells them apart may be missing. Identical values can stand only once. Marks after values point to notes of the source that are not given here.

Columns and labels:
isolated rat heart = test: Isolated rat heart infarction model; assay type: in vivo, Wistar rats; conditions: by mouth for 14 days (Meldonium dihydrate 120 mg/kg, orotic acid 100mg/kg, Meldonium orotate 200 mg/kg), 60 minutes occlusion, 150 minute reperfusion
Procedure: Experiments were conducted on adult male Wistar rats with initial weight of 280-310g. During the experiment, the animals were kept in Standard crates in groups of 8. The feed was a standardized diet R70 (LABFOR, Lactamin AB, Sweden). The room temperature was kept at 21-23°C, relative humidity at 65±10%, 12 hour light/darkness cycle.
Rats weighing approximately 300 g were randomly divided in 4 groups. The first group received saline by mouth (control group), the second group 120 mg/kg Meldonium dihydrate, the third orotic acid 100mg/kg and the fourth group 200 mg/kg Meldonium orotate by mouth for 14 days.
Rats were anesthetized with sodium pentobarbital (60 mg/kg) and heparin (1 IU/g) was administrated concomitantly. Hearts were excised and retrogradely perfused via aorta at a constant pressure of 50 mm Hg, with oxygenated Krebs-Henseleit buffer ( content in mmol/L: NaCl 118, Ca Cl2 2.52, MgCl2 1.64, NaHCO3 24.88, KH2PO4 1.18, glucose 10.0, EDTA 0.05) pH 7.3-7.5 at 37°C.
A 5-0 polypropylene suture (Surgipro II, Syneture) was passed under the left anterior descending coronary artery and threaded through a small plastic tube to permit reversible occlusion of the coronart artery. Coronary flow was measured using an ultrasound flow detector (HSE) and PowerLab 8/30 system from ADlnstruments.
Hearts were adapted for 20 minutes and occlusion was performed for 60 minutes by constricting threads through a plastic tube.
At the end of the 150 minute reperfusion, the left anterior descending coronary artery was relegated and the risk zone was delineated with 0.1 % methylene blue solution in Krebs-Henseleit buffer infused via the aorta root. Hearts were sectioned transversely from the apex to the base of 2 mm thickness and incubated in 1 % triphenyl-tetrazolium chloride in phosphate buffer (pH 7.4, 37°C) for 10 minutes to stain viable tissue red and necrotic tissue white. […] Computerized planemetric analysis of photographs was performed using Image-Pro Plus 4.5.1 software to determine the area at risk (AR) and area of necrosis (AN) expressed as percentage of the left ventricle (LV). […]

rats = test: Acute arrhythmia induced by calcium chloride, lethality; assay type: in vivo, Wistar rats; conditions: deaths/rats per group (8 rats), p.o. 14 days (Meldonium dihydrate 120 mg/kg, Meldonium orotate 204 mg/kg), last dose 24 h before, CaCl2 185 mg/kg, ECG until 10 minutes after
Procedure: Experiment was conducted on adult male Wistar rats. During the experiment, the animals were kept in Standard crates in groups of 8. The feed was a standardized diet R3 (LABFOR, Lactamin AB, Sweden). The room temperature was kept at 21-23°C, relative humidity at 65±10%, 12 hour light/darkness cycle. The experimental procedures were carried out in accordance with the guidelines of the European Community and local laws and policies and were approved by Latvian Animal Protection Ethical Committee, the Food and Veterinary Service.
An experimental acute arrhythmia was caused by introducing in rats solution of Calcium chloride.
Rats weighing 240-250 g randomized were divided into 3 groups, where in all groups there were 8 rats. During all 14 days rats got experimental preparations: Meldonium dihydrate or Meldonium orotate. The first group of 8 rats received drinking water (control group), the second group of 8 rats received Meldonium dihydrate (120 mg/kg p.o.) and the third group of 8 rats received Meldonium orotate (204 mg/kg p.o.). The last dose of experimental preparations animals got 24 h before the experiment. […] When narcosis started to influence to rat, there was cannulated left femoral vena for introducing of 10 % CaCl2 and after that there was connected ECG's recoding device (ADlnstrument PowerLab systems) and read ECG from the II lead. […]

SMILES | Infarct size, % of control (isolated rat heart; IS = AN/AR x 100) | Fatal outcome (rats) | Infarct size, % of control (isolated rat heart; IS = AN/AR x 100, dihydrate) | Fatal outcome (rats; dihydrate)
C[N+](C)(C)NCCC(=O)[O-] [Meldonium orotate, 3-(2,2,2-trimethylhydrazinium) propionate orotate] | 49.1±6.1***^,#,& % of control | no lethal cases and 0/8 | – | –
C[N+](C)(C)NCCC(=O)[O-] [Meldonium dihydrate, 3-(2,2,2-Trimethylhydrazinium) propionate dihydrate] | – | – | 76.9±5.9 % of control | 2/8
O=C(O)c1cc(=O)[nH]c(=O)[nH]1 [Orotic acid] | 75.0±7.7 % of control | – | – | –
